Measured values as given in patent US8999991B2, “Inhibitors of the renal outer medullary potassium channel” (Merck Sharp & Dohme Corp., priority 2011, dated 2015).

Target: T1, hROMK (hKir1.1) (Homo sapiens, UniProt P48048)
T1 construct: expressed in transfected cells; HEK-hKir1.1)
T1 sequence (P48048 1-391): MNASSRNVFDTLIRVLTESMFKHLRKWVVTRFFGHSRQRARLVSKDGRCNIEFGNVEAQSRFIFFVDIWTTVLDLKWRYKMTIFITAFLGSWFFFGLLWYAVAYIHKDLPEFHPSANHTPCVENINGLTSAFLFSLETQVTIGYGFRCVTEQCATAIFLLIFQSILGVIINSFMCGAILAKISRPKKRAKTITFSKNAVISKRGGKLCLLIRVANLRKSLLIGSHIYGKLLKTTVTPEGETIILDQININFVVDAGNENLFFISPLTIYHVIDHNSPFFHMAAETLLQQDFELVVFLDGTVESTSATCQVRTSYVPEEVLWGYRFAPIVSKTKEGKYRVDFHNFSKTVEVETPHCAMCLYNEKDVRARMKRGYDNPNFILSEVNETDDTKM
Experiment: Thallium Flux Assay (ROMK channel functional thallium flux assay, FLIPR-Tetra, 384 wells)
Format: cell-based
Details: HEK293 cells stably expressing hROMK (hKir1.1); 30 min incubation with test compound
Experimental: The following Thallium Flux Assay was performed on the final product compounds in all the Examples. This assay makes use of the ability of thallium to permeate through open ROMK channels and increase the fluorescence of a dye previously loaded into the cells. Under control conditions, cells loaded with dye and exposed to thallium-containing medium display a time-dependent increase in fluorescence, the rate of which depends on number of functional channels. When cells are incubated in the presence of a channel inhibitor, the increase in fluorescence is attenuated in a concentration-dependent manner, and IC50 values of inhibition by compounds can be accurately determined. This assay has been established with cell lines expressing either human, or rat ROMK channels, and operates in 384-well format.
HEK293 cells stably expressing hROMK (hKir1.1) were grown at 37° C. in a 10% CO2 humidified incubator in complete growth media: Dulbecco's Modified Eagle Medium supplemented with non-essential amino acids, Penicillin/Streptomycin/Glutamine, G418 and FBS. At >80% confluency, aspirate the media from the flask and rinse with 10 mL Calcium/Magnesium-free PBS. Add 5 mL of 1× trypsin (prepared in Ca/Mg Free PBS) to T-225 flask and return flask to 37° C./CO2 incubator for 2-3 minutes. To dislodge the cell, gently bang the side of the flask with your hand. Triturate the cells completely and then transfer the cells to 25 mL complete media. Centrifuge at 1,500 rpm for 6 min followed by resuspension in complete growth media and determine cell concentration. For typical re-seeding, 4E6 cells/T-225 flask will attain >80% confluency in 4 days. Under ideal growth conditions and appropriate tissue culture practices, this cell line is stable for 40-45 passages.
• FluxOR™ Reagent (Component A) • FluxOR™ Assay Buffer (Component B)—10× Concentrate • PowerLoad™ Concentrate (Component C)—100× Concentrate • Probenecid (Component D)—Lyophilized sample is kept at −20° C. Water soluble, 100× after solubilization in 1 mL water. […] Store at 4° C. • Thallium sulfate (Tl2SO4) Concentrate (Component G)—50 mM in water. Store at 4° C. • DMSO (dimethyl sulfoxide, Component H)—1 mL (100%) Reagent Preparation: FluxOR Working Solutions • 1000× FluxOR™ Reagent: Reconstitute a vial of component A in 100 μl DMSO; Mix well; Store 10 μl aliquots at −20° C. • 1× FluxOR™ Assay Buffer: Dilute Component B 10-fold with water; Adjust pH to 7.4 with Hepes/NaOH; Filter and store at 4° C. • Probenecid/Assay Buffer: 100 mL of 1× FluxOR™ Assay Buffer; 1 mL of reconstituted component D; Store at 4° C. • Loading Buffer (per microplate): 10 μl 1000× FluxOR™ Reagent; 100 μl component C; 10 mL Probenecid/Assay Buffer • Compound Buffer (per microplate): 20 mL Probenecid/Assay Buffer; 0.3 mM ouabain (10 mM ouabain in water can be stored in amber bottle/aluminum foil at room temperature); Test compound • 1× FluxOR™ Chloride-Free Buffer: Prepare 1× working solution in water. Can be stored at room temperature • Stimulant Buffer (prepared at 5× final concentration in 1× FluxOR™ Chloride-Free Buffer): 7.5 mM Thallium sulfate and 0.75 mM Potassium sulfate (to give a final assay concentration of 3 mM Thallium/0.3 mM Potassium). Store at 4° C. when not in use. If kept sterile, this solution is good for months. Assay Protocol—
The ROMK channel functional thallium flux assay is performed in 384 wells, using the FLIPR-Tetra instrument. HEK-hKir1.1 cells are seeded in Poly-D-Lysine microplates and kept in a 37° C.-10% CO2 incubator overnight. On the day of the experiment, the growth media is replaced with the FluxOR™ reagent loading buffer and incubated, protected from light, at ambient temperature (23-25° C.) for 90 min. The loading buffer is replaced with assay buffer±test compound followed by 30 min incubation at ambient temperature, where the Thallium/Potassium stimulant is added to the microplate.
• 1. Seed HEK-hKir1.1 cells (50 μl at 20,000 cells/well) in 384-well PDL coated Microplates • 2. […]

`Cc1c([C@@H](O)CN2CCN(c3nc4ccc(C#N)cc4s3)C(=O)C2)ccc2c1COC2=O` [Example 9, 2-{4-[(2R)-2-Hydroxy-2-(4-methyl-1-oxo-1,3-dihydro-2-benzofuran-5-yl)ethyl]-2-oxopiperazin-1-yl}-1,3-benzothiazole-6-carbonitrile] showed an IC50 of 90 nM.

For `Cc1c([C@@H](O)CN2CCN(c3cc4ccc(C#N)c(C)c4cn3)C(=O)C2)ccc2c1COC2=O` [Example 13, 3-{4-[(2R)-2-Hydroxy-2-(4-methyl-1-oxo-1,3-dihydro-2-benzofuran-5-yl)ethyl]-2-oxopiperazin-1-yl}-8-methylisoquinoline-7-carbonitrile], the IC50 was 150 nM.

`Cc1c([C@@H](O)CN2CCN(c3ccc4nc(S(C)(=O)=O)ccc4c3)C(=O)C2)ccc2c1COC2=O` [Example 15, 4-[(2R)-2-hydroxy-2-(4-methyl-1-oxo-1,3-dihydro-2-benzofuran-5-yl)ethyl]-1-[2-(methylsulfonyl)quinolin-6-yl]piperazin-2-one] was tested, and the IC50 was 220 nM.

`Cc1cc2nc(N3CCN(C[C@H](O)c4ccc5c(c4C)COC5=O)CC3=O)ccc2cc1C#N` [Example 12, 2-{4-[(2R)-2-Hydroxy-2-(4-methyl-1-oxo-1,3-dihydro-2-benzofuran-5-yl)ethyl]-2-oxopiperazin-1-yl}-7-methylquinoline-6-carbonitrile] showed an IC50 of 80 nM.

For `Cc1c([C@@H](O)CN2CCN(c3ccc4cc(C#N)sc4n3)C(=O)C2)ccc2c1COC2=O` [Example 8, 6-{4-[(2R)-2-Hydroxy-2-(4-methyl-1-oxo-1,3-dihydro-2-benzofuran-5-yl)ethyl]-2-oxopiperazin-1-yl}thieno-[2,3-b]pyridine-2-carbonitrile], the IC50 was 160 nM.

With `Cc1c([C@@H](O)CN2CCN(c3nc4cc(C#N)ccc4s3)C(=O)C2)ccc2c1COC2=O` [Example 7, 2-{4-[(2R)-2-Hydroxy-2-(4-methyl-1-oxo-1,3-dihydro-2-benzofuran-5-yl)ethyl]-2-oxopiperazin-1-yl}-1,3-benzothiazole-5-carbonitrile] the IC50 was 40 nM.

`N#Cc1ccc2cc(N3CCN(CCc4ccc5c(c4)COC5=O)CC3=O)ccc2c1` [Example 1, 6-{2-Oxo-4-[2-(1-oxo-1,3-dihydro-2-benzofuran-5-yl)ethyl]piperazin-1-yl}naphthalene-2-carbonitrile] gave an IC50 of 60 nM.

`Cc1c([C@@H](O)CN2CCN(c3ccc4cc(C#N)ccc4c3)C(=O)C2)ccc2c1COC2=O` [Example 2, 6-{4-[(2R)-2-Hydroxy-2-(4-methyl-1-oxo-1,3-dihydro-2-benzofuran-5-yl)ethyl]-2-oxopiperazin-1-yl}naphthalene-2-carbonitrile] was tested, and the IC50 was 50 nM.

`Cc1c([C@@H](O)CN2CCN(c3cc4ccc(C#N)cc4cn3)C(=O)C2)ccc2c1COC2=O` [Example 5, 3-{4-[(2R)-2-Hydroxy-2-(4-methyl-1-oxo-1,3-dihydro-2-benzofuran-5-yl)ethyl]-2-oxopiperazin-1-yl}isoquinoline-7-carbonitrile] was tested, and the IC50 was 80 nM.

`Cc1c([C@@H](O)CN2CCN(c3cnc4cc(C#N)ccc4c3)C(=O)C2)ccc2c1COC2=O` [Example 11, 3-{4-[(2R)-2-Hydroxy-2-(4-methyl-1-oxo-1,3-dihydro-2-benzofuran-5-yl)ethyl]-2-oxopiperazin-1-yl}quinoline-7-carbonitrile] gave an IC50 of 140 nM.

`Cc1c([C@@H](O)CN2CCN(c3ccc4cc(C#N)sc4c3)C(=O)C2)ccc2c1COC2=O` [Example 14, 6-{4-[(2R)-2-Hydroxy-2-(4-methyl-1-oxo-1,3-dihydro-2-benzofuran-5-yl)ethyl]-2-oxopiperazin-1-yl}-1-benzothiophene-2-carbonitrile] showed an IC50 of 160 nM.

In the case of `Cc1c([C@@H](O)CN2CCN(c3ccc4cc(C#N)cnc4c3)C(=O)C2)ccc2c1COC2=O` [Example 10, 7-{4-[(2R)-2-Hydroxy-2-(4-methyl-1-oxo-1,3-dihydro-2-benzofuran-5-yl)ethyl]-2-oxopiperazin-1-yl}quinoline-3-carbonitrile], the IC50 is reported as 210 nM.

In the case of `Cc1c([C@@H](O)CN2CCN(c3ccc4ccc(C#N)cc4c3)C(=O)C2)ccc2c1COC2=O` [Example 6, 7-{4-[(2R)-2-Hydroxy-2-(4-methyl-1-oxo-1,3-dihydro-2-benzofuran-5-yl)ethyl]-2-oxopiperazin-1-yl}naphthalene-2-carbonitrile], the IC50 is reported as 90 nM.

`Cc1cc2c(cc1C(O)CN1CCN(c3ccc4cc(C#N)ccc4c3)C(=O)C1)COC2=O` (racemic) [Example 3, 6-{4-[2-Hydroxy-2-(6-methyl-1-oxo-1,3-dihydro-2-benzofuran-5-yl)ethyl]-2-oxopiperazin-1-yl}naphthalene-2-carbonitrile] was tested, and the IC50 was 70 nM.
